Measurements reported in PMC5589090 (PLoS Medicine, 2017).
“And” between values parts separate entries of the source, which are not always exact repeats. Identical values can stand only once. Like-named read-outs stand apart in the source and are kept apart here.

Columns and labels:
[1] = Blood chemistries and biomarkers of hemolysis, thrombophilia, inflammation (LDH, total bilirubin, D-dimer, CRP); assay type: in vivo, human; conditions: cohorts 4 and 5
Description: Blood counts, blood chemistries, total bilirubin, HbF, LDH, and D-dimer levels were standard clinical pathology tests through the CLIA-certified Clinical Pathology Laboratory at the University of Illinois at Chicago.

thyroid carcinoma = system: thyroid carcinoma; parameters: method as in ref 95 (a number printed in a supplementary file, which may have a reference list of its own: not looked up in the article's list); conditions: cited from earlier work
[2] = cited from earlier work
[3] = cited from earlier work; remark: listed apart in the source
[4] = system: malignant tumor formation; parameters: method as in Berger MR. Proc Am Ass Cancer Res 1997;38:599; conditions: 6mg/kg of decitabine; controls 30-40%; ref Berger MR. Proc Am Ass Cancer Res 1997;38:599; cited from earlier work
HbF = HbF levels by HPLC; assay type: in vivo, human
Description: Blood counts, blood chemistries, total bilirubin, HbF, LDH, and D-dimer levels were standard clinical pathology tests through the CLIA-certified Clinical Pathology Laboratory at the University of Illinois at Chicago. […] For quantification of F-cells by flow cytometry, peripheral blood samples were fixed and stained with phycoerythrin-conjugated anti-HbF (Caltag) per manufacturer’s instructions. A normal adult negative control and cord blood positive control were run with each Becton-Dickinson FacsCalibur (Sunnyvale, CA) analysis.

[5] = human starting dose 0.01 mg/kg
Method: (§1) To ensure safety in case of this possibility, decitabine pharmacokinetics are measured after single dose oral administration of decitabine and THU.

[6] = cited from earlier work; remark: listed apart in the source
[7] = cited from earlier work; remark: listed apart in the source
THP1 = conditions: 0.3 µM daily for 2-3 days; cited from earlier work
[8] = Decitabine storage and solution stability; assay type: physicochemical; conditions: 18 months at -20 °C
[9] = human, po, 0.01 mg/kg
Method: as §1

[10] = system: LINE-1 repetitive element CpG; experiment: Methylation level of LINE-1 repetitive element CpG by pyrosequencing in PBMC; assay type: in vivo, human
Method: DNA was purified from peripheral blood mononuclear cells (isolated by Ficoll-Hypaque density centrifugation) using the Wizard Genomic DNA Purification Kit (Promega). DNA was bisulfite-converted using EZ DNA Lightning Methylation kit (Zymo Research). The PCR primers were 10 pmol of 5′- […]-3′ and 10 pmol of biotinylated-5′-[…]-3′. PCR cycling conditions were: cycle temperature of 94°C for 30 seconds, 60°C for 30 seconds, and 72°C for 30 seconds, for 45 cycles to consume all the biotinylated primers. The biotinylated strand was captured on streptavidin sepharose beads (Amersham Biosciences, Uppsala, Sweden) and annealed with the sequencing primer 5′-[…]-3′. The methylation degree of long interspersed nuclear elements (LINE-1) was computed at 3 CpG sites pyrosequenced with the Pyromark Q24 Pyrosequencer (Qiagen) using the dispensation order […].

[11] = cited from earlier work; remark: listed apart in the source
[12] = Adverse events (CTCAE v 4.0), phase 1 trial NCT01685515 in SCD adults; conditions: cohorts 1-5
Description: The primary endpoint was ≥ grade 3 non-hematologic toxicity.
For statistical comparisons of adverse events (AEs) between placebo and each dose group, we performed exact tests of the null hypothesis that the rate parameters of Poisson distributed AEs are equal. Relative risks are given as the ratio of such rate parameters. Thus, differences are insignificant if relative risks confidence intervals include 1. The R function poisson.test(), an exact test, was used. Pain, the most frequent AE, was analyzed similarly.

[13] = read-out: decitabine Cmax; 15 mg/m^2 IV over 3 hours Q8 hrs D1-3 or 20 mg/m^2 IV over 1 hour D1-5; ref 105;108;109; cited from earlier work
testicular cancer = system: testicular cancer; parameters: method as in ref 92 (a number printed in a supplementary file, which may have a reference list of its own: not looked up in the article's list); conditions: 20% incidence in controls; cited from earlier work
8 melanoma cell lines = system: 8 melanoma cell lines; parameters: method as in ref 21 (a number printed in a supplementary file, which may have a reference list of its own: not looked up in the article's list); conditions: two daily treatments 0.2 µM; cited from earlier work
DNMT1 = conditions: cited from earlier work
cancers = system: cancers; parameters: method as in ref 94 (a number printed in a supplementary file, which may have a reference list of its own: not looked up in the article's list); conditions: cited from earlier work
[14] = rat, in vivo; cited from earlier work
[15] = Table B1, baseline before treatment, per subject, r10 Mean ±SD
[16] = Table B1, last 20 of 36 weeks of treatment, per subject, r10 Mean ±SD

## Nc1ncn([C@H]2C[C@H](O)[C@@H](CO)O2)c(=O)n1 [decitabine, 5-aza-2’-deoxycytidine]
[1]; biomarker of hemolysis
  serum LDH: improved
  total bilirubin: improved
[1]; biomarker of inflammation
  CRP levels: improved
[1]; biomarker of thrombophilia
  D-dimer: improved
Thyroid carcinoma
  thyroid carcinoma promotion: promoted goitrogen induced, but not radiation induced, thyroid carcinoma
[2]; Fig 1C, decitabine alone
  plasma t ½: < 15 min
[2]; abbreviated by CDA, ref 27;28
  decitabine half-life in vivo: < 20 min
[2]; decitabine alone
  oral bioavailability: negligible
  plasma half-life: only minutes
[2]; read-out: Cmax that correlates with nucleotide pool imbalance, DNA-damage, and cytotoxicity
  Cmax: > 500 nM
[3]; at the 6th week
  Platelet counts, average increase: 2.2 fold
[3]
  time to maximum HbF: ≤ 4 weeks
[3]; in 6 of 8 subjects
  Total Hb increase: 1 g/dL
[3]; nadir at 6 weeks
  transient decline in neutrophils: 3 fold
[4]
  rate of malignant tumor formation: 74-94%
HbF; decitabine 0.08 mg/kg and […] (cohorts 4 and 5)
  HbF% increases by HPLC: increases by HPLC were observed
HbF; other decitabine dose levels (cohorts 1-3)
  HbF% increases by HPLC: not with other decitabine dose levels
[5]
  expected Cmax lower than Cmax […] with reversible toxicity in murine toxicology studies: 3,920 fold
[6]; 124 MDS subjects
  tolerability: well tolerated
[6]; MDS subjects with abnormal cytogenetics, 40-50 mg/m^2 3X/wk, courses every 6-8 weeks
  major cytogenetic responses: 31%
[6]; MDS subjects
  unusual patterns of cytogenetic instabilities: no unusual patterns of cytogenetic instabilities were found
[6]; MDS, 45 mg/m^2/day for 3 days every 6 weeks, ref Saba et al, 2004
  treatment related deaths: no treatment related deaths
[6]; over 1,000 patients with hematologic or solid tumors
  secondary malignancies: no reports of secondary malignancies
[6]; patients with myeloid malignancies, treated for years
  side effects of chronic metronomic very-low-dose decitabine: without significant side effects
[7]; 36 weeks, seven subjects
  cumulative hematologic or non-hematologic toxicities: No cumulative hematologic or non-hematologic toxicities
[7]; IV 0.3 mg/kg/day 5 days/week for 2 weeks, 6-week cycles
  ANC nadir at optimal drug dose: > 1500 cells/µL
[7]; [15]
  HbF (%) Pre: 3.12 ± 2.75% and 0.8% and 6.8% and 1.4% and 0.6% and 2.9% and 6.2%
  Total Hemoglobin Pre: 7.32 ± 0.94 g/dL and 6.2 g/dL and 8.2 g/dL and 6.0 g/dL and 7.2 g/dL and 8.0 g/dL and 7.8 g/dL
[7]; [16]
  HbF (%) Avg: 13.93 ± 2.35% and 12.40 ± 1.25% and 14.55 ± 1.32% and 12.75 ± 2.28% and 10.80 ± 2.05% and 16.42 ± 2.81% and 16.70 ± 2.55%
  HbF (%) Max: 18.35 ± 4.46% and 14.4% and 16.3% and 17.2% and 24.6% and 23.2%
  Total Hemoglobin Avg: 8.81 ± 0.42 g/dL and 9.05 ± 0.48 g/dL and 9.37 ± 0.60 g/dL and 8.34 ± 0.55 g/dL and 8.28 ± 0.52 g/dL and 8.91 ± 0.57 g/dL and 8.92 ± 0.79 g/dL
  Total Hemoglobin Max: 9.73 ± 0.53 g/dL and 9.6 g/dL and 10.3 g/dL and 9.5 g/dL and 9.0 g/dL and 10.4 g/dL
[7]; base-line […] ± 2.75%
  average HbF during the last twenty weeks of treatment: 13.93 ± 2.35%
  average maximal HbF during the last twenty weeks of treatment: 18.35% ± 4.46%
[7]
  maximal F-cell numbers, average over all 7 subjects: 69 ± 10.12%
  period of neutropenia: 1 to 3 days
[7]; last 20 weeks, base-line of 7.23 ±2.35 g/dL
  average hemoglobin: 8.81 ± 0.42 g/dL
[7]; pretreatment average 4600 ± 1560, in cells/µL (unit assumed)
  average ANC during the last 20 weeks of treatment: 4200 ± 1350
[7]; range over subjects
  individual maximal F-cell numbers: 58 - 87%
THP1
  DNMT1 protein expression: profoundly decreased DNMT1 protein expression
  phosphorylation of H2AX: did not increase phosphorylation of H2AX
  viability: did not decrease the viability
[8]
  drug substance stability on storage: no change in appearance, assay or impurities
[9]
  Cmax: ≤ 0.74 nM
[10]; decitabine […] (cohort 5) after THU 10 mg/kg 2X/week
  LINE-1 repetitive element CpG methylation decrease in PBMC: approximately 10%
[10]; lower decitabine doses (cohorts 1-4)
  LINE-1 CpG methylation decrease in PBMC: not with lower decitabine doses
[11]
  greater decitabine exposure in rodents versus human dose for dose: more than 100 fold
[12]
  grade 4 AEs: no grade 4 AEs
[13]
  Cmax: ≤ 2700 nM
Testicular cancer
  testicular cancer occurrence: 0%
8 melanoma cell lines
  DNA damage (H2AX, CHK1, p53 phosphorylation, BAX, GADD45, comet assay): did not cause DNA damage
DNMT1; in vitro
  concentrations that deplete DNMT1 without measurable DNA damage or cytotoxicity: 200 to 500 nM
DNMT1; ref 15;17-22;48
  threshold concentration for depleting DNMT1: ~ 0.005 µM
DNMT1; ref 27;101
  half-life in vitro: 300 to 960 min
cancers
  decrease of the incidence of cancers: 30%
[14]
  embryo toxicity: fetal resorption and fetal defects
